Laboratory results: patent publication US5188952A, “Process for the decomposition of acrylamide” (Imperial Chemical Industries PLC, priority 1986, dated 1993)

Tested on: Methylophilus methylotrophus amidase (acylamide amidohydrolase EC No. 3-5-1-4)
Assay: Methylophilus methylotrophus amidase properties (Km)
Type: biochemical
Conditions: substrate of the amidase; conditions not given

Compound	Km [mM]
CC(N)=O [Acetamide]	0.2
C=CC(N)=O [Acrylamide]	10
